Calls of active or inactive are those of the source.

One assay has as its target Genome polyprotein (dengue virus type 2, UniProt P29990). Kind of assay: Dengue-2 NS5 methyltransferase inhibitors, primary screen, biochemical, confirmation dose response (AID 588689). The format is functional.
Assay [1] in a line: HeLa cell cytotoxicity, dose response, cytotoxicity control for MgcRacGAP inhibitor project (AID 624300). The format is functional.
Assay [2] addresses Sphingosine 1-phosphate receptor 2 (Homo sapiens, UniProt O95136). Kind of assay: Dose Response Cell Based Assay for Antagonists of the S1P2 Receptor. [Related pubchem assays: 856, 736 ]. The format is functional.
The target of assay [3] is Kappa-type opioid receptor (Homo sapiens, UniProt P41145). The format is functional.
The nature of assay [4]: HepG2 cell cytotoxicity, dose response, cytotoxicity control for Shn3 inhibitor project, CellTiter-Glo, cherry-picked (AID 624134). The format is functional, cell-based.
The target of the next assay is Beta-galactosidase (Escherichia coli, UniProt Q8VNN2). The format is functional.
Assay [5] can be described thus: inhibitors of PGC1a acetylation in cells, dose response, cell-based, cherry-picked samples (AID 720514).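 Note: potency may reflect raised or lowered acetylation signal.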 The format is functional.
A short description of assay [6]: growth suppression of PTEN-null colon cells, dose response, cell-based, HCT116 PTEN knockout (AID 1047).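 Note: HCT116 colon tumor cells with PTEN knocked out; cells exposed to compound for 60 hours before readout; potency for loss of cell viability measured by luminescence.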 The format is functional.
Assay [7] concerns the target Type-1 angiotensin II receptor (Homo sapiens, UniProt P30556). In words: AT1 receptor antagonists, dose response, selectivity assay for APJ receptor antagonist project, cell-based, uHTS hits (AID 463214).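 Note: antagonist potency against angiotensin II stimulated AT1 response.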 The format is functional.
In assay [8] the target is G2/mitotic-specific cyclin-B1 (Homo sapiens, UniProt P14635). Kind of assay: Counterscreen assay for inhibitors of Wee1 degradation: dose response cell-based assay to identify inhibitors of cyclin B degradation. [Related pubchem assays: 1410, 1321 ]. The format is functional. For orientation: Counterscreens check selectivity or assay interference.
A short description of assay [9]: cytotoxicity in HEK-293T cells, dose response, cytotoxicity control for TCR NF-kB inhibitor project, luminescence, T-cell screen hits (AID 489026).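 Note: cells exposed to compound about 14 hours before the viability readout.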 The format is functional, cell-based.
Another assay deals with Hexokinase HKDC1 (Homo sapiens, UniProt Q2TB90). In words: HKDC1 hexokinase inhibitors, dose response, biochemical, W721R variant (AID 504729). The format is functional.
Assay [10] has as its target T1, Histone-lysine N-methyltransferase NSD2 (Homo sapiens, UniProt O96028).
T1 sequence (O96028 whole entry): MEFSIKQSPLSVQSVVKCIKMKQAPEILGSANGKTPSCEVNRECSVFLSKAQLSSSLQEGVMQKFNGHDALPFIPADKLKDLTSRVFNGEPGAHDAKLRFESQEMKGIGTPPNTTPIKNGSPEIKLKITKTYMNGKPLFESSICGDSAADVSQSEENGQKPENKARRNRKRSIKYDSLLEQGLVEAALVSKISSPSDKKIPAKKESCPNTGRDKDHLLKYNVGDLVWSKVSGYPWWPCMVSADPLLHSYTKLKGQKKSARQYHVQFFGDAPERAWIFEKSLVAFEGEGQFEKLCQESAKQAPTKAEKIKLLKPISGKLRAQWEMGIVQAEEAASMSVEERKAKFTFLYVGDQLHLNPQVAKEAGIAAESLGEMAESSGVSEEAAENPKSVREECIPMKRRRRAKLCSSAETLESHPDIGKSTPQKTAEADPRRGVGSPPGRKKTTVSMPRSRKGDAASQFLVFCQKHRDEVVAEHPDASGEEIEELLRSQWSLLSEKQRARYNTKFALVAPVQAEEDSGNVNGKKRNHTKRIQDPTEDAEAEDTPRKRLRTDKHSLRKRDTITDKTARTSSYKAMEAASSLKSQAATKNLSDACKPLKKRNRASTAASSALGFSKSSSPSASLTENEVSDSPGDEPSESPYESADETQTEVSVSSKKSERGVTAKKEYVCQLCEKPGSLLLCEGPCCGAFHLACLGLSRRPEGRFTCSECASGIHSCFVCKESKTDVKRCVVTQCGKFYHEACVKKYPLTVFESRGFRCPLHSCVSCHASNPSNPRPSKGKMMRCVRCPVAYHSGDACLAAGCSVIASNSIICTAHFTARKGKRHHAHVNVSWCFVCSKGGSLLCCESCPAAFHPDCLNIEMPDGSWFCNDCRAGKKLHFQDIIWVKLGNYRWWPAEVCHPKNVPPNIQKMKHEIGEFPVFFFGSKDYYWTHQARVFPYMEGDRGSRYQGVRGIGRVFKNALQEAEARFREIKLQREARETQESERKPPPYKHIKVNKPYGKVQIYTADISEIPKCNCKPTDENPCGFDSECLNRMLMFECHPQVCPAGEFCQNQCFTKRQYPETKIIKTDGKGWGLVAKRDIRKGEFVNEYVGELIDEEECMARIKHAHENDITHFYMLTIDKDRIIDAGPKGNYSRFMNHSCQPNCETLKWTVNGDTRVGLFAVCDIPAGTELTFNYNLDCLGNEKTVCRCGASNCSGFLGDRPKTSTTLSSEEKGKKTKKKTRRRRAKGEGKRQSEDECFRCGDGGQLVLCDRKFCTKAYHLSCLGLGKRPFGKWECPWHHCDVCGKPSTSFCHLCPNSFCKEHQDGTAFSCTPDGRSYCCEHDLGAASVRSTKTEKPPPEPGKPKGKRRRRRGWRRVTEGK
The format is biochemical.

Assay [11] addresses T2, Zinc finger protein mex-5 (Caenorhabditis elegans, UniProt Q9XUB2).
T2 sequence (Q9XUB2 whole entry): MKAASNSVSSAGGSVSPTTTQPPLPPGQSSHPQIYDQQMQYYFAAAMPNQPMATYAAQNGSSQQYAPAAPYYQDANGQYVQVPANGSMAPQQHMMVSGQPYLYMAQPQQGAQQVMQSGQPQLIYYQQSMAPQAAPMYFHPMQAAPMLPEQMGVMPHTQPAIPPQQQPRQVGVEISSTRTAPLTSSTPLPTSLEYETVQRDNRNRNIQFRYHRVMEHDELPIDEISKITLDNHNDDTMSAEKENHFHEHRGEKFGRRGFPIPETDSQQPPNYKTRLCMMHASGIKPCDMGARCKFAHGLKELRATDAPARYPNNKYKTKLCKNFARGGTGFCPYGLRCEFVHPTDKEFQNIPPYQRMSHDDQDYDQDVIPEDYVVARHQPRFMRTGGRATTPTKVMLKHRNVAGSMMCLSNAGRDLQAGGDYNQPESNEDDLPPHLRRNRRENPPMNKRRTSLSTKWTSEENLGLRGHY
In words: MEX-5/TCR-2 RNA interaction inhibitors, dose response, biochemical, C. elegans, fluorescence polarization (AID 1960).

Sequence of Genome polyprotein (P29990 2492-3391 limits assumed): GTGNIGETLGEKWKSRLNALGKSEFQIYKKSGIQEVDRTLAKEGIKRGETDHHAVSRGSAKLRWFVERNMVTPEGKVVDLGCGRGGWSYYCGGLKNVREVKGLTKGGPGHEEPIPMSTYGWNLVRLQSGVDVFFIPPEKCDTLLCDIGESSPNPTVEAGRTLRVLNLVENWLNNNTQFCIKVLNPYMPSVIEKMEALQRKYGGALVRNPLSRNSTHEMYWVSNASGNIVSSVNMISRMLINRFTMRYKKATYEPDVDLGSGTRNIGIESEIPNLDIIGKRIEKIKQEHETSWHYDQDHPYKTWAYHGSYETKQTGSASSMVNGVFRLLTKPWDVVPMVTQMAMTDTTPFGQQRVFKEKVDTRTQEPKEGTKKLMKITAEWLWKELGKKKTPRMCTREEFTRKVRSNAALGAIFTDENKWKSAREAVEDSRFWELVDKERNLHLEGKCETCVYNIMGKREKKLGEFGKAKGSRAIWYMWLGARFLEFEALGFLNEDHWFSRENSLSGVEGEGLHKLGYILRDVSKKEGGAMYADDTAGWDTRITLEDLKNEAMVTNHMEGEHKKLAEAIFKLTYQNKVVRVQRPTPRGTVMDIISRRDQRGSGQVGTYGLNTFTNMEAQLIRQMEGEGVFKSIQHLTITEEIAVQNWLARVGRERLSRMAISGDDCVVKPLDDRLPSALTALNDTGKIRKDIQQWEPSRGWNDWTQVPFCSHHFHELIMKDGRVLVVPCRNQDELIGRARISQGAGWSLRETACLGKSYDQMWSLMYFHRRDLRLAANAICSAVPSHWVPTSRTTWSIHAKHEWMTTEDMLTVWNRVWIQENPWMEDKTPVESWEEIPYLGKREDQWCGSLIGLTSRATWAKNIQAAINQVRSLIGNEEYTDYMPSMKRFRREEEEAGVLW
Sequence of Type-1 angiotensin II receptor (P30556 whole entry): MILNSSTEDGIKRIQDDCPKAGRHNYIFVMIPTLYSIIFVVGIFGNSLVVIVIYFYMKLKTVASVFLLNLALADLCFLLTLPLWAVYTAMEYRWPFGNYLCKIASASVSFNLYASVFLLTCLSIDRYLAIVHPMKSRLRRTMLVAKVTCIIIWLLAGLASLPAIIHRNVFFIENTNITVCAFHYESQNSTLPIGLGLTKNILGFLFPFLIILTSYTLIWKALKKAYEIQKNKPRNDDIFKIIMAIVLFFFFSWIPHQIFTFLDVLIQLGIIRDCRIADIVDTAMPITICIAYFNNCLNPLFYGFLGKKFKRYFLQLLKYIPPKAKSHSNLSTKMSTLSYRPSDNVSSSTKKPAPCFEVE
Sequence of Kappa-type opioid receptor (P41145 whole entry): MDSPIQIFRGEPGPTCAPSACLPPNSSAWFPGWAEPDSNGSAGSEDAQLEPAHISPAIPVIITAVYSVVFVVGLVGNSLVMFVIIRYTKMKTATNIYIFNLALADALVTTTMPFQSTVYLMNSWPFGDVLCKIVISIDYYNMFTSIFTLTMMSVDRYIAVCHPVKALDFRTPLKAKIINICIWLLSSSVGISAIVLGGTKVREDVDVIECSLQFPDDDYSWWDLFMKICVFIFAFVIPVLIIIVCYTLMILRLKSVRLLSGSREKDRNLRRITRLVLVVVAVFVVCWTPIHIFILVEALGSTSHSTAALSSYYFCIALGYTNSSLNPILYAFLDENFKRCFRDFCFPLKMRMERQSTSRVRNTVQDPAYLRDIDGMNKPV
Sequence of Sphingosine 1-phosphate receptor 2 (O95136 whole entry): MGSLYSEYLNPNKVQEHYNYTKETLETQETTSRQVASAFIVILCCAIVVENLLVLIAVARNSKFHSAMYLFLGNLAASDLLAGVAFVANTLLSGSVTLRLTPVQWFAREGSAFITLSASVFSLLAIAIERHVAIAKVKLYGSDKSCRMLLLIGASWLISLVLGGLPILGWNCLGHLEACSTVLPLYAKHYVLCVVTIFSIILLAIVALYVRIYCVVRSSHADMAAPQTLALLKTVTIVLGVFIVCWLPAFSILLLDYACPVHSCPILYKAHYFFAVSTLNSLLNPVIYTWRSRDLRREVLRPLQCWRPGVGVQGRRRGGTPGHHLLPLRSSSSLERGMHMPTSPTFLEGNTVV
Sequence of Beta-galactosidase (Q8VNN2 whole entry): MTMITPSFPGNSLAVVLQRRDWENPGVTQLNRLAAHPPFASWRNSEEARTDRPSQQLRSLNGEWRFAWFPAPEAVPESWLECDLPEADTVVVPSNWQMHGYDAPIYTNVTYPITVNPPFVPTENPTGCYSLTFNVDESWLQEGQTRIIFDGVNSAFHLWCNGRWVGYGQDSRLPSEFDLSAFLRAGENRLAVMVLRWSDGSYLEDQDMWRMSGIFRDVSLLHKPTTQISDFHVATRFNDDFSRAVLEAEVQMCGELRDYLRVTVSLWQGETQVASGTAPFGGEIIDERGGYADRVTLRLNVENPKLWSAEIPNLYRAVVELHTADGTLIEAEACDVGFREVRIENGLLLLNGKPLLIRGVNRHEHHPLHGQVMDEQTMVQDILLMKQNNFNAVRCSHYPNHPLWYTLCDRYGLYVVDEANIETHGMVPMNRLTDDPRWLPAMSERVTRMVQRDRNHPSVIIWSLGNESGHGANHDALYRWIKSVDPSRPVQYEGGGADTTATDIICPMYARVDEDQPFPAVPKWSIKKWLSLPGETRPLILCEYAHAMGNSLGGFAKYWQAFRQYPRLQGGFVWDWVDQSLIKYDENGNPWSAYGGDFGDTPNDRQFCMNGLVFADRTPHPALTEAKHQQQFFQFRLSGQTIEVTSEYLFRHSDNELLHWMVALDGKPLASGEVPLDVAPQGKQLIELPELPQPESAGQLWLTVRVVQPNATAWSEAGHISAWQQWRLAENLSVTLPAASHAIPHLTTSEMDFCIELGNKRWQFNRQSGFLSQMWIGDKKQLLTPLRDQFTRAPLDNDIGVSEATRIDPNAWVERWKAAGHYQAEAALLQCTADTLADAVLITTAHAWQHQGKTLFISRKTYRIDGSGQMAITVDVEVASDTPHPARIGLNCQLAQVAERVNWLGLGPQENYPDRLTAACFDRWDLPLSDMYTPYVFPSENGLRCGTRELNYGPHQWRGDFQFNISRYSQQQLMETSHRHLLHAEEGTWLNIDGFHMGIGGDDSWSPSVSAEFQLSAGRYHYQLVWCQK
Sequence of G2/mitotic-specific cyclin-B1 (P14635 whole entry): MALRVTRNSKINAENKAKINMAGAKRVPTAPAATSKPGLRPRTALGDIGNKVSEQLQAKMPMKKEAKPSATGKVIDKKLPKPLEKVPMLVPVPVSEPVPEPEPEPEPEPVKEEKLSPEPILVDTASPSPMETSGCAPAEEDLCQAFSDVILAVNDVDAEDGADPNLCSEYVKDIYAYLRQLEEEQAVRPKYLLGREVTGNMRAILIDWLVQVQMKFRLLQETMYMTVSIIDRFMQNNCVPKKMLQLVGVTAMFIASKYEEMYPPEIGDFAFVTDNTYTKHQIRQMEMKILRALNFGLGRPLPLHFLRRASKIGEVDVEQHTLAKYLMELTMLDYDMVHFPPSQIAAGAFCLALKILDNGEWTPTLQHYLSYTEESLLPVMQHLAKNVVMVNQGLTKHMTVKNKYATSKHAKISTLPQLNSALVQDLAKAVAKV
Sequence of Hexokinase HKDC1 (Q2TB90 whole entry): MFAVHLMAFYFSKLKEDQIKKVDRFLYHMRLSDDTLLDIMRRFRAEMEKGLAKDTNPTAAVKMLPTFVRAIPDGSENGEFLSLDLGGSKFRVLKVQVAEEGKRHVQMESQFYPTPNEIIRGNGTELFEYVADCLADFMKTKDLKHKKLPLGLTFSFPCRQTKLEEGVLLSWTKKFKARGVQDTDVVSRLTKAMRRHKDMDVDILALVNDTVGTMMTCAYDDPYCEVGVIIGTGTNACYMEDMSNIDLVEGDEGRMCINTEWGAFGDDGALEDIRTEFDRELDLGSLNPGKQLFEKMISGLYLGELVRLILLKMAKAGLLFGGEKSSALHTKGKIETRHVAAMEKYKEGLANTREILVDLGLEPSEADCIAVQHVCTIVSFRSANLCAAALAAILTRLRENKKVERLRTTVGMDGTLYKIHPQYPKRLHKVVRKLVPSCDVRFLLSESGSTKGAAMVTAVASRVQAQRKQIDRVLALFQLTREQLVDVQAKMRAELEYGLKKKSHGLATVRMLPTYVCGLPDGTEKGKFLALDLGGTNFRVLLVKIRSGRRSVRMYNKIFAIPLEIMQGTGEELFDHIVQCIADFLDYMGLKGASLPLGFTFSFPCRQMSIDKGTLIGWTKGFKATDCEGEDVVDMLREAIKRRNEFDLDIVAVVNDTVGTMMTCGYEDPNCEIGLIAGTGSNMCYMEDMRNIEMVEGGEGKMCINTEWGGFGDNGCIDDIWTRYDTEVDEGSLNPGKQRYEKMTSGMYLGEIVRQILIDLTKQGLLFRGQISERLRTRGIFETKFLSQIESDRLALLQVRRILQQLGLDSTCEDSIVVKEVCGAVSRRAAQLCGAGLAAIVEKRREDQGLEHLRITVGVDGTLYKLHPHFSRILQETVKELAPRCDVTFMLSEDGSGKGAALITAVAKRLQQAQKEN

Broadly, the IC50 is the concentration that gives 50% inhibition. For the compound `Nc1ccc(N2CCCCC2)c2nonc12`, on Genome polyprotein, the IC50 is 40.6 µM (active).
The CC50 is the concentration giving 50% cytotoxicity. One may read the AC50 as the concentration giving half of the maximal activity seen. What is called EC50 is the concentration that produces a half-maximal response. `COc1ccc(NC(=O)/C(Cl)=C(/Cl)[S+]([O-])Cc2ccccc2)cn1` (centres undefined): in assay [1], the CC50 is 24.1 µM (active). In addition, the IC50 in [2] is 0.942 µM (active); in [3], 7.62 µM; in assay [7], 3.93 µM (active); in assay [9], 33 µM (inactive). In addition, the AC50 was 5.52 µM (active) in [4] and 1.65 µM (active) in assay [5]. Further, the EC50 at Beta-galactosidase was > 31.5 µM (inactive); in assay [6], 0.197 µM (active); in [8], > 1.84 µM (active).
Turning to `Cc1ccc(S(=O)(=O)/N=C2\C=C(Nc3cccc(C(=O)O)c3)C(=O)c3ccccc32)c(C)c1`, the IC50 on Hexokinase HKDC1 was 8.6 µM (active). For the same compound, in [10], the AC50 was 0.255 µM (active). Moreover, in assay [11], the EC50 is 31.7 µM (active).
